Test results taken from publication PMC6035239, “Glycan recognition in globally dominant human rotaviruses” (Nature Communications, 2018).

Target: T1, P[6] RV3 VP8* (Human rotavirus A, UniProt D7F7M7)
T1 construct: VP8* domain, N-terminal fragment of spike protein VP4 (polyprotein-like precursor cleaved by trypsin); N-terminal GST tag removed with thrombin; E. coli BL21(DE3)
Experiment: 2D 1H-15N HSQC NMR titration, global fit of […] peaks
Format: binding
Details: 70 μM 15N-labeled protein, 0.5-20 mM ligand; 10 mM sodium phosphate, 50 mM NaCl, 10% D2O, pH 7; crystal structure and STD NMR also done

Question: Which Kd does the source give for CC(=O)N[C@H]1[C@H](O[C@H]2[C@@H](O)[C@@H](CO)O[C@@H](O[C@H]3[C@H](O)[C@@H](O)C(O)O[C@@H]3CO)[C@@H]2O)O[C@H](CO)[C@@H](O)[C@@H]1O[C@@H]1O[C@H](CO)[C@H](O)[C@H](O)[C@H]1O[C@@H]1O[C@@H](C)[C@@H](O)[C@@H](O)[C@@H]1O (stereo partly shown) [LNFP1] here?
Answer: 7.1 ± 0.2 mM
